Data published in ChEMBL document CHEMBL1152560, “Substituted 2-arylbenzothiazoles as kinase inhibitors: hit-to-lead optimization” (Bioorg Med Chem, 2009).

Legend:
[1] = target: T1, Ephrin type-B receptor 4 (Homo sapiens) (UniProt P54760); assay: Residual activity of EPHB4 at 1 uM by microplate scintillation counting
T1 sequence (whole entry): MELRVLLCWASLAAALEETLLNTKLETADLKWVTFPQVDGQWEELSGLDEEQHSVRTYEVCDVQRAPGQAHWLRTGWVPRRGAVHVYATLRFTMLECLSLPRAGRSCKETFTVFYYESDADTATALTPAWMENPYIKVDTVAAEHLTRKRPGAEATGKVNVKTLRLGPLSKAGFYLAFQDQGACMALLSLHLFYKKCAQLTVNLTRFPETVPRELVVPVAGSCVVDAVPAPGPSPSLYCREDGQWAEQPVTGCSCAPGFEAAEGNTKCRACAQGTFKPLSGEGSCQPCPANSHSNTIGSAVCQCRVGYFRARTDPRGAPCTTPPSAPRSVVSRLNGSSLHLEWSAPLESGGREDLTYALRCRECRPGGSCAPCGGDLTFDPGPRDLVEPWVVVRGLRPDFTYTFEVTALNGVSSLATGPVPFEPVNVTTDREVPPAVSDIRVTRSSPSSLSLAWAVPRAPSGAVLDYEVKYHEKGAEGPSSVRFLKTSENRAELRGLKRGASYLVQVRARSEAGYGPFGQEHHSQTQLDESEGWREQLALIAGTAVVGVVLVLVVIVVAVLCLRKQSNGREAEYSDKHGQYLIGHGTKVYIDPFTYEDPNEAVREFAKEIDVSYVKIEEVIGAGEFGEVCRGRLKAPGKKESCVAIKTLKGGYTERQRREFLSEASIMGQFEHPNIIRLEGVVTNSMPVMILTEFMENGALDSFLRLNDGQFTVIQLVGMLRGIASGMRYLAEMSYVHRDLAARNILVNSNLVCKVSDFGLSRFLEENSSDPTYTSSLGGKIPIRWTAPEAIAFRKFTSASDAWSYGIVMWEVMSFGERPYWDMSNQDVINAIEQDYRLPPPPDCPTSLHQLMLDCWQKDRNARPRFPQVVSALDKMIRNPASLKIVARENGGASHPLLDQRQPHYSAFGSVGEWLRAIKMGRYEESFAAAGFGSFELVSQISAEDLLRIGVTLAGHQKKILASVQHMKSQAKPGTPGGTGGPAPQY

[2] = target: Misshapen-like kinase 1 (Homo sapiens) (UniProt Q8N4C8); assay: Residual activity of MINK1 at 10 uM by microplate scintillation counting
Sequence of Misshapen-like kinase 1 (Homo sapiens) (Q8N4C8 whole entry, looked up): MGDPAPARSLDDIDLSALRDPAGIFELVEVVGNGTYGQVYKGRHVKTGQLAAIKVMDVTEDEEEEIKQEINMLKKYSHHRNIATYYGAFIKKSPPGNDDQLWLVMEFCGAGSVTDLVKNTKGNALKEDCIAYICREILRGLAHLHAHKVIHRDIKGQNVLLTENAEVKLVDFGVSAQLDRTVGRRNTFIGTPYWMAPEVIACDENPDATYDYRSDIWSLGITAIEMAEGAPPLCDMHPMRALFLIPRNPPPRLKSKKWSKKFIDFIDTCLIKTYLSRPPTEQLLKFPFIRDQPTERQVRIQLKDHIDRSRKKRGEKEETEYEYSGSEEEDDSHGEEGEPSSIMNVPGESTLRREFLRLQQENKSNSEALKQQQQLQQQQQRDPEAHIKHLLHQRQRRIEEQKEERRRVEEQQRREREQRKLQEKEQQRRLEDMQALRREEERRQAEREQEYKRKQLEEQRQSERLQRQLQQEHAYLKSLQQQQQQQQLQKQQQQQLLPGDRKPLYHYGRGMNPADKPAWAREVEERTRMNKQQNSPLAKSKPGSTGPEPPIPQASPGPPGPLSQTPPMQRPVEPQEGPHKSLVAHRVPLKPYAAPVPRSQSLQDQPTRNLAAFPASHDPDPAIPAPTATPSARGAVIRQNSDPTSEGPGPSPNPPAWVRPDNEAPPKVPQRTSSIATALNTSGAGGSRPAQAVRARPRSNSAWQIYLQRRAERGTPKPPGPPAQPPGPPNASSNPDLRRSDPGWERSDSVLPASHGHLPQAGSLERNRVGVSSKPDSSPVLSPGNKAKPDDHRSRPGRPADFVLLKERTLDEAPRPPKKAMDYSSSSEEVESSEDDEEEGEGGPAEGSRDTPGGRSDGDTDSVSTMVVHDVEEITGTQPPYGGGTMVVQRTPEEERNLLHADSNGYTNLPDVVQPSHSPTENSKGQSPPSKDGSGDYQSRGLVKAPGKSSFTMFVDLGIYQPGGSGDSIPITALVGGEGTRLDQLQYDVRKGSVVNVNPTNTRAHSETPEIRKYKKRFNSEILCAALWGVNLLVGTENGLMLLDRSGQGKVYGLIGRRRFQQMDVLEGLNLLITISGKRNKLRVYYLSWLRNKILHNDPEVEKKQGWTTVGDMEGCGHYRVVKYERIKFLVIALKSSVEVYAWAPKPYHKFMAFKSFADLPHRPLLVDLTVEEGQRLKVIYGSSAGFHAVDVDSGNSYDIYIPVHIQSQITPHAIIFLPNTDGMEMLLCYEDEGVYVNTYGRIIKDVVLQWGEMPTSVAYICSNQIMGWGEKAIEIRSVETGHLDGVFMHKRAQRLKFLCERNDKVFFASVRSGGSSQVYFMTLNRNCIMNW

[3] = target: Ribosomal protein S6 kinase beta-2 (Homo sapiens) (UniProt Q9UBS0); assay: Residual activity of S6Kbeta at 0.1 uM by microplate scintillation counting
Sequence of Ribosomal protein S6 kinase beta-2 (Homo sapiens) (Q9UBS0 whole entry): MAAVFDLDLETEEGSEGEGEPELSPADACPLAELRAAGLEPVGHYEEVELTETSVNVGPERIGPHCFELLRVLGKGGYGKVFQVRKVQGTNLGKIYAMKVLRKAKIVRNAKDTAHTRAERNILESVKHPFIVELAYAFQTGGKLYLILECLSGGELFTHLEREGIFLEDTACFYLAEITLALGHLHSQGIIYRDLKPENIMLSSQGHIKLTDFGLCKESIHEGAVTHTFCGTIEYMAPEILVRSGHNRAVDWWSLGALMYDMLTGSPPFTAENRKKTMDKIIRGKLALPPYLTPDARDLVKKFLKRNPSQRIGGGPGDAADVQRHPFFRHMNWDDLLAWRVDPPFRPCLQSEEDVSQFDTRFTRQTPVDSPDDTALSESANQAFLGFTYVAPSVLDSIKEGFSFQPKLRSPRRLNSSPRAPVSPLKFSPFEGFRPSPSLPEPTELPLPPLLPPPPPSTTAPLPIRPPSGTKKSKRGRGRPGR

[4] = target: Dual specificity protein kinase CLK1 (Homo sapiens) (UniProt P49759); assay: Residual activity of CLK1 at 1 uM by microplate scintillation counting
Sequence of Dual specificity protein kinase CLK1 (Homo sapiens) (P49759 whole entry, looked up): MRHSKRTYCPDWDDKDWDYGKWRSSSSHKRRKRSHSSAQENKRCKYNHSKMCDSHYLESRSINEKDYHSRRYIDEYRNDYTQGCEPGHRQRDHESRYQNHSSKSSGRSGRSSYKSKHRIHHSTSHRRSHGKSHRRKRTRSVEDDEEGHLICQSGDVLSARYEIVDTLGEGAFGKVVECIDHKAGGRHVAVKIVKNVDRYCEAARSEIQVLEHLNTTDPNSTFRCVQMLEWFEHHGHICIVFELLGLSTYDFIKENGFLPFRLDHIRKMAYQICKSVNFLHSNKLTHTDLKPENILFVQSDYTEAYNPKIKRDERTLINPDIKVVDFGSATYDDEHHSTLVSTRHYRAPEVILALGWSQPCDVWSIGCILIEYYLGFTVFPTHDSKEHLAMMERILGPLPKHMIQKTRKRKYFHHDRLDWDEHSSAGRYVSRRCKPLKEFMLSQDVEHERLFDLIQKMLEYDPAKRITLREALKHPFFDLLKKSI

[5] = target: T2, Serine/threonine-protein kinase 4 (Homo sapiens) (UniProt Q13043); assay: Residual activity of MST1 at 10 uM by microplate scintillation counting
T2 sequence (whole entry): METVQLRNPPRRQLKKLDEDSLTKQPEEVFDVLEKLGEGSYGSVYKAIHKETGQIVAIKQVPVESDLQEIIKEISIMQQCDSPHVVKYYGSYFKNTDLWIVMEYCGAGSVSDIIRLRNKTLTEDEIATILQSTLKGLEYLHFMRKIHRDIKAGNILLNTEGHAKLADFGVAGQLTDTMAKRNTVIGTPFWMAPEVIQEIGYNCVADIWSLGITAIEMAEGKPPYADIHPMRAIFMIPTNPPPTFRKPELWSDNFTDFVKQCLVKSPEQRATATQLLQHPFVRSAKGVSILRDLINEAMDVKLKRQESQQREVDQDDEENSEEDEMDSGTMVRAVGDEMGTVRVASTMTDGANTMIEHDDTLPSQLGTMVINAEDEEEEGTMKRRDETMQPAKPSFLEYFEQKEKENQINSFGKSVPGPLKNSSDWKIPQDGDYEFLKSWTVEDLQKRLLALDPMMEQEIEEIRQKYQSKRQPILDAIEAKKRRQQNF

[6] = target: T3, Calcium/calmodulin-dependent protein kinase type IV (Homo sapiens) (UniProt Q16566); assay: Residual activity of CAMK4 at 10 uM by microplate scintillation counting
T3 sequence (whole entry): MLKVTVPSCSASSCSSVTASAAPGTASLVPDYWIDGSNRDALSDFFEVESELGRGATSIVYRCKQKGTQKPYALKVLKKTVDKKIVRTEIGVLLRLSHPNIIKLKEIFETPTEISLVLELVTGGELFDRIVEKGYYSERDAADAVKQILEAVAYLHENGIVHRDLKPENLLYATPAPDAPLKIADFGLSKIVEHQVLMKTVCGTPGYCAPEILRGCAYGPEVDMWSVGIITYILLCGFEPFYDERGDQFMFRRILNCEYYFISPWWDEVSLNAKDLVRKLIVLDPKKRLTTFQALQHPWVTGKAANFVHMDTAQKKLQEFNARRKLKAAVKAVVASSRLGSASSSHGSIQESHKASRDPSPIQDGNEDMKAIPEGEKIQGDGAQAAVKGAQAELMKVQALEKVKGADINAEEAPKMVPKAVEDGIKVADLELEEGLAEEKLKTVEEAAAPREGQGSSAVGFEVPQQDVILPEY

Structure (SMILES)	residual activity [1] [%]	residual activity [2] [%]	residual activity [3] [%]	residual activity [4] [%]	residual activity [5] [%]	residual activity [6] [%]
COc1cc2c(Oc3ccc(-c4nc5ccccc5s4)cc3F)ncnc2cc1OCCCN1CCN(C)CC1	114	20	55	104	26	211
COc1cc2c(Oc3ccc(-c4nc5ccccc5s4)cc3)ncnc2cc1OCCCN1CCCC1	127	36	47	107	30	88
COc1cc2c(Oc3ccc(-c4nc5ccccc5s4)cc3)ncnc2cc1OCCCN1CCN(C)CC1	127	21	42	99	23	227
